Measured values: patent publication US10981932B2, “Macrocyclic indole derivatives” (Bayer Aktiengesellschaft, priority 2016, dated 2021)
Structures can show the parent of a compound that is named as a salt. Where two headings read alike, the source gives them in different places.

Tests used:
MCL-1 = MCL-1 (Homo sapiens, UniProt Q07820); assay: Protein-protein interaction assay MCL-1/Noxa BH3 peptide (MCL-1 assay), TR-FRET; assay type: binding; details: MBP-MCL-1 / Noxa BH3-derived peptide, median
Chain of MCL-1 (Q07820 whole entry): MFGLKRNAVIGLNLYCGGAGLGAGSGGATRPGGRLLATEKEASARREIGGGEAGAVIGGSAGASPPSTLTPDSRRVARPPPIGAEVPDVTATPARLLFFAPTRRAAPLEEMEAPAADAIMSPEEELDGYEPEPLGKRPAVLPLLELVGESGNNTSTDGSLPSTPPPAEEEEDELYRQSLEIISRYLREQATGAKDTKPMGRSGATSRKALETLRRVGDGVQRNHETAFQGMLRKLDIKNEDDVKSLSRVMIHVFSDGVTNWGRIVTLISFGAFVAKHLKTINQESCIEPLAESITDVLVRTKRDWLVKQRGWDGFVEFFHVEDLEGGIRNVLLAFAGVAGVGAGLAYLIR
Summary of the method: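 MBP-MCL-1 (1 nM final) was preincubated 10 min at 22 °C with compounds (11 concentrations, 0.1 nM–20 μM, duplicates) in Tris pH 7 buffer with NaCl, KF, Tween-20, DTT and BGG. After 1 h at 22 °C in the dark plus overnight at 4 °C, anti-MBP Eu-cryptate/streptavidin-XL665 TR-FRET was read; IC50 came from a 4-parameter fit.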

SUDHL5 [1] = assay: Induction of caspase-3/7 activity (Caspase-Glo 3/7), SUDHL5; assay type: cell-based; details: caspase-3/7 induction, SUDHL5 cells, 3 h treatment, median
Summary of the method: (§1)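 Caspase-Glo 3/7 luminescence measured after 3 h compound exposure at 37 °C in SUDHL10 and SUDHL5 cells. EC50 values come from background-corrected signals, with curve bottom set to 1 and plateau set to maximal induction by the reference compound.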

SUDHL10 [2] = assay: Induction of caspase-3/7 activity (Caspase-Glo 3/7), SUDHL10; assay type: cell-based; details: caspase-3/7 induction, SUDHL10 cells, 3 h treatment, median
Summary of the method: as §1

SUDHL5 [3] = assay: Anti-proliferative effect (CellTiter-Glo, 72 h), SUDHL5; assay type: cell-based; details: SUDHL5 cells, antiproliferation, 72 h incubation, median, read-out: Antiproli SUDHL5 [M] (median)
Summary of the method: (§2)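 CellTiter-Glo luminescence readout of viability, taken on a time-zero plate at day 0 and on treated plates after 72 h incubation at 37 °C in a humidified incubator. Reagent incubation 10 min before reading.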

SUDHL10 [4] = assay: Anti-proliferative effect (CellTiter-Glo, 72 h), SUDHL10; assay type: cell-based; details: SUDHL10 cells, antiproliferation, 72 h incubation, median, read-out: Antiproli SUDHL10 [M] (median)
Summary of the method: as §2

OPM2 = assay: Anti-proliferative effect (CellTiter-Glo, 72 h), OPM2; assay type: cell-based; details: OPM2 cells, median, read-out: IC50 antiproliferation assay OPM2 [M] (median)
Summary of the method: as §2

A2780 = assay: Anti-proliferative effect (CellTiter-Glo, 72 h), A2780; assay type: cell-based; details: A2780 cells, median, read-out: IC50 antiproliferation assay A2780 [M] (median)
Summary of the method: as §2

MV-4-11 = assay: Anti-proliferative effect (CellTiter-Glo, 72 h), MV-4-11; assay type: cell-based; details: MV-4-11 cells, median, read-out: IC50 antiproliferation assay MV-4-11 [M] (median)
Summary of the method: as §2

SUDHL5 [5] = assay: Induction of cytotoxicity (CellTiter-Glo, 5 h), SUDHL5
Experimental: Therefore, cytotoxicity assays were run in parallel in SUDHL5 and SUDHL10 cells.
The different cell lines were plated in culture medium (RPMI 1640 [GIBCO #22400-089]supplemented with 10% Fetal Bovine Serum) at a density of 3.300 cells in 30 μl/well in a sterile, solid black, flat bottom, polystyrene, TC-treated 384-well microplate (Corning #3571) using Multidrop Combi Reagent Dispenser. As a control, medium without cells was also added to the plate. Cells were incubated in a humidified incubator at 37° C. overnight. On the next day, the cells were treated with compounds (stock solution, 10 mM in DMSO) using the HP D300 Digital Dispenser in a concentration range of 3.3×10e-5 M (33 μM) to 5×10e-9 M (5 nM) in a single-dot curve with at least 16 dilutions and a DMSO concentration of 0.33%. Rim wells were excluded. The cells were incubated for 5 h hours in a humidified incubator at 37° C. After this incubation, 30 μl of CellTiter-Glo@ Luminescent Cell Viability reagent (Promega, G7573) was added to each well using the Multidrop Combi Reagent Dispenser, followed by 15 min incubation on a shaker at room temperature. Finally, luminescence was read at 0.1 ms, with a gain of 3000 using the PHERAstar FS microplate reader (BMG Labtech).
The Bella DRC Master Sheet was used to calculate IC50s, with fixed CI=0 and C0=1.

SUDHL10 [6] = assay: Induction of cytotoxicity (CellTiter-Glo, 5 h), SUDHL10
[7] = Homo sapiens, SU-DHL-5, 5 h, read-out: Cytotox SUDHL5 [M] (median), SUDHL5 cells, cytotoxicity induction, CellTiter-Glo, 5 h incubation, median
[8] = Homo sapiens, SU-DHL10, 5 h, read-out: Cytotox SUDHL10 [M] (median), SUDHL10 cells, cytotoxicity induction, CellTiter-Glo, 5 h incubation, median
[9] = read-out: Cytotox SUDHL5 [M] (median), SUDHL5 cells, cytotoxicity induction, CellTiter-Glo, 5 h incubation, median
[10] = read-out: Cytotox SUDHL10 [M] (median), SUDHL10 cells, cytotoxicity induction, CellTiter-Glo, 5 h incubation, median

Row | Compound | IC50 (MCL-1) [µM] | EC50 (SUDHL5 [1]; Homo sapiens, SU-DHL-5, 3 h) [µM] | EC50 (SUDHL10 [2]; Homo sapiens, SU-DHL10, 3 h) [µM] | IC50 (SUDHL5 [3]; Homo sapiens, SU-DHL-5, 72 h) [M] | IC50 (SUDHL10 [4]; Homo sapiens, SU-DHL10, 72 h) [M] | IC50 (A2780; Homo sapiens, A2780, 72 h) [M] | IC50 (MV-4-11; Homo sapiens, MV4-11, 72 h) [M] | EC50 (SUDHL5 [1]) [µM] | EC50 (SUDHL10 [2]) [µM] | IC50 (SUDHL5 [3]) [M] | IC50 (SUDHL10 [4]) [M] | IC50 (A2780) [M] | IC50 (MV-4-11) [M] | IC50 (OPM2; Homo sapiens, OPM-2, 72 h) [M] | IC50 (SUDHL5 [5]; [7]) [M] | IC50 (SUDHL10 [6]; [8]) [M] | IC50 (SUDHL5 [5]; [9]) [M] | IC50 (OPM2) [M] | IC50 (SUDHL10 [6]; [10]) [M]
1 | Cc1ccc2c(CCCOc3cccc4ccccc34)c(C(=O)O)n3c2c1-c1c(C)nn(C)c1COCCCC3 (racemic) [Example 027, (rac)-1,3,4-trimethyl-7-[3-(naphthalen-1-yloxy)propyl]-1,10,11,12,13,15-hexahydropyrazolo[4′,3′:9,10][1,6]oxazacycloundecino[8,7,6-hi]indole-8-carboxylic Acid] | 0.00527 | 6.7 | 20.4 | 9.27e-06 | 7.34e-06 | 2.54e-05 | 2.98e-05 | – | – | – | – | – | – | > 3.3e-05 | 8.54e-06 | 2.59e-05 | – | – | –
2 | CN1CCCn2c(C(=O)O)c(CCCOc3cccc4ccccc34)c3cccc(c32)-c2c(CNCC(F)(F)F)nn(C)c2C1 (single isomer, unassigned; enantiomer 2) [Example 131, 7,9-dimethyl-1-[3-(naphthalen-1-yloxy)propyl]-11-{[(2,2,2-trifluoroethyl)amino]methyl}-4,5,6,7,8,9-hexahydropyrazolo[3′,4′:7,8][1,5]diazecino[9,10,1-hi]indole-2-carboxylic acid-N-ethylethanamine Salt (Enantiomer 2)] | 0.0191 | – | – | – | – | – | 6.24e-06 | 25.9 | 30.9 | 1.17e-05 | 1.16e-05 | 1.48e-05 | – | – | – | – | 1.46e-05 | 1.71e-05 | 2.88e-05
3 | Cn1nc(CN2CCOCC2)c2c1COCCCCn1c(C(=O)O)c(CCCOc3cccc4ccccc34)c3cccc-2c31 (single isomer, unassigned; enantiomer 2) [Example 137, 1-methyl-3-(morpholin-4-ylmethyl)-7-[3-(naphthalen-1-yloxy)propyl]-1,10,11,12,13,15-hexahydropyrazolo[4′,3′:9,10][1,6]oxazacycloundecino[8,7,6-hi]indole-8-carboxylic Acid (Enantiomer 2)] | 0.0107 | 12.9 | 22.1 | 2.67e-06 | 5.9e-06 | > 3.3e-05 | 6.78e-06 | – | – | – | – | – | – | > 3.3e-05 | 8.98e-06 | 3.06e-05 | – | – | –
4 | CCc1c2c(nn1C)COCCCCn1c(C(=O)O)c(CCCOc3cccc4ccccc34)c3cccc-2c31 (racemic) [Example 147, (rac)-3-Ethyl-2-methyl-7-[3-(1-naphthyloxy)propyl]-2,10,11,12,13,15-hexahydropyrazolo[4′,3′:9,10][1,6]oxazacycloundecino[8,7,6-hi]indole-8-carboxylic Acid] | 0.00377 | 2.26 | 7.48 | 3.06e-06 | 3.93e-06 | 2.44e-05 | 1.37e-05 | – | – | – | – | – | – | 1.05e-05 | 2.8e-06 | 9.53e-06 | – | – | –
5 | COCc1c2c(nn1C)COCCCCn1c(C(=O)O)c(CCCOc3cccc4ccccc34)c3cccc-2c31 (single isomer, unassigned; enantiomer 2) [Example 101, 3-(methoxymethyl)-2-methyl-7-[3-(naphthalen-1-yloxy)propyl]-2,10,11,12,13,15-hexahydropyrazolo[4′,3′:9,10][1,6]oxazacycloundecino[8,7,6-hi]indole-8-carboxylic acid-N-ethylethanamine Salt (Enantiomer 2)] | 0.00185 | – | – | – | – | – | 1.85e-06 | 1.74 | 3.43 | 1.32e-06 | 4.47e-06 | 2.71e-05 | – | 4.37e-06 | – | – | 2.03e-06 | – | 4e-06

Continued, in another order:

Row | IC50 (MCL-1) [µM] | EC50 (SUDHL5 [1]; Homo sapiens, SU-DHL-5, 3 h) [µM] | EC50 (SUDHL10 [2]; Homo sapiens, SU-DHL10, 3 h) [µM] | IC50 (SUDHL5 [3]; Homo sapiens, SU-DHL-5, 72 h) [M] | IC50 (SUDHL10 [4]; Homo sapiens, SU-DHL10, 72 h) [M] | IC50 (A2780; Homo sapiens, A2780, 72 h) [M] | IC50 (MV-4-11; Homo sapiens, MV4-11, 72 h) [M] | EC50 (SUDHL5 [1]) [µM] | EC50 (SUDHL10 [2]) [µM] | IC50 (SUDHL5 [3]) [M] | IC50 (SUDHL10 [4]) [M] | IC50 (A2780) [M] | IC50 (MV-4-11) [M] | Compound | IC50 (OPM2; Homo sapiens, OPM-2, 72 h) [M] | IC50 (SUDHL5 [5]; [7]) [M] | IC50 (SUDHL10 [6]; [8]) [M] | IC50 (SUDHL5 [5]; [9]) [M] | IC50 (OPM2) [M] | IC50 (SUDHL10 [6]; [10]) [M]
6 | 0.00187 | 0.579 | 0.953 | 9.83e-07 | 1.44e-06 | 6.31e-06 | 3.57e-06 | – | – | – | – | – | – | Cn1nc(COc2ccc(N3CCN(S(C)(=O)=O)CC3)cc2)c2c1COCCCCn1c(C(=O)O)c(CCCOc3cccc4ccccc34)c3cccc-2c31 (racemic) [Example 1-8, (rac)-1-methyl-3-({4-[4-(methylsulfonyl)piperazin-1-yl]phenoxy}methyl)-7-[3-(naphthalen-1-yloxy)propyl]-1,10,11,12,13,15-hexahydropyrazolo[4′,3′:9,10][1,6]oxazacycloundecino[8,7,6-hi]indole-8-carboxylic Acid] | 1.24e-06 | 8.33e-07 | 1.07e-06 | – | – | –
7 | 0.0185 | – | 8.86 | 4.55e-06 | 4.08e-06 | 8.7e-06 | 6.94e-06 | 7.09 | – | – | – | – | – | CCS(=O)(=O)N1CCN(c2ccc(N3CCCn4c(C(=O)O)c(CCCOc5cccc6ccccc56)c5cccc(c54)-c4c(C)nn(C)c4C3)cc2)CC1 (single isomer, unassigned; enantiomer 1) [Example 1-109, 7-{4-[4-(Ethylsulfonyl)piperazin-1-yl]phenyl}-9,11-dimethyl-1-(3-(1-naphthyloxy)propyl-4,5,6,7,8,9-hexahydropyrazolo[3′,4′:7,8][1,5]diazecino[9,10,1-hi]indole-2-carboxylic Acid (Enantiomer 1)] | 8.14e-06 | 8.44e-06 | 1.48e-05 | – | – | –
8 | 0.0102 | 6.34 | 7.32 | 2.48e-06 | 4.3e-06 | 7.55e-06 | 2.62e-06 | – | – | – | – | – | – | COc1ccccc1-c1ncc(OCc2nn(C)c3c2-c2cccc4c(CCCOc5cccc6ccccc56)c(C(=O)O)n(c24)CCCN(C)C3)cn1 (single isomer, unassigned) [Example 1-91, 11-({[2-(2-methoxyphenyl)pyrimidin-5-yl]oxy}methyl)-7,9-dimethyl-1-[3-(naphthalen-1-yloxy)propyl]-4,5,6,7,8,9-hexahydropyrazolo[3′,4′:7,8][1,5]diazecino[9,10,1-hi]indole-2-carboxylic acid-N-ethylethanamine Salt] | 8.37e-06 | – | 9.23e-06 | 5.99e-06 | – | –
9 | 0.00151 | – | – | – | – | – | 7.2e-07 | 2.52 | 2.62 | 7.67e-07 | 1.02e-06 | 6.24e-06 | – | CCN(CC)S(=O)(=O)N1CCN(c2ccc(OCc3nn(C)c4c3-c3cccc5c(CCCOc6cccc7ccccc67)c(C(=O)O)n(c35)CCCCOC4)cc2)CC1 (single isomer, unassigned; enantiomer 2) [Example 1-5, 3-({4-[4-(diethysulfamoyl)piperazin-1-yl]phenoxy}methyl)-1-methyl-7-[3-(naphthalen-1-yloxy)propyl]-1,10,11,12,13,15-hexahydropyrazolo[4′,3′:9,10][1,6]oxazacycloundecino[8,7,6-hi]indole-8-carboxylic Acid (Enantiomer 2)] | – | – | – | 3.2e-06 | 1.13e-06 | 4.77e-06
10 | 0.00671 | – | – | 1.31e-05 | > 3.3e-05 | > 3.3e-05 | – | 4.5 | 6.15 | – | – | – | 8.89e-06 | Cc1c2c(nn1C)CN(C)CCCn1c(C(=O)O)c(CCCOc3cccc4ccccc34)c3cccc-2c31 (single isomer, unassigned; enantiomer 1) [Example 1-34, 7,10,11-trimethyl-1-[3-(naphthalen-1-yloxy)propyl]-4,5,6,7,8,10-hexahydropyrazolo[3′,4′:7,8][1,5]diazecino[9,10,1-hi]indole-2-carboxylic Acid-N-ethylethanamine Salt (Enantiomer 1)] | 2.69e-05 | – | – | 3.36e-06 | – | 4.53e-06
